{
  "source": "PubChem BioAssay AID2060900",
  "about": "(Molecular Pharmacology Branch, DTP, NCI, 2025)",
  "test_system": "521955-158-R2-J5-PDC complex spheroids, viability",
  "assay": "Anticancer human tumor 521955-158-R2-J5-PDC patient-derived pancreatic carcinoma cell line growth inhibition [RAS]",
  "conditions": "for viability, T/C: stronger effect = lower value",
  "method_in_brief": "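Tumour cells grown as complex spheroids with HUVEC endothelial cells and mesenchymal stem cells, treated with RAS pathway inhibitor combinations. Each agent spans half-log steps from near clinical Cmax, or 10 microM where Cmax is unknown.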",
  "data": [
    {"compound": "CC(=O)OC12COC1CC(O)C1(C)C(=O)C(O)C3=C(C)C(OC(=O)C(O)C(NC(=O)OC(C)(C)C)c4ccccc4)CC(O)(C(OC(=O)c4ccccc4)C21)C3(C)C", "note": "(configuration not stated);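 further: compound exposure lasted seven days before the viability read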;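 on viability, T/C: spheroids also contain HUVEC endothelial cells and mesenchymal stem cells as stroma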", "values": [
      {"measurement": "viability, T/C", "setting": "compound 0.0316 µM", "value": "38.4% [middle of 4 runs]"},
      {"measurement": "viability, T/C", "setting": "compound 0.316 µM", "value": "27.9% [middle of 4 runs]"},
      {"measurement": "viability, T/C", "setting": "compound 1 µM", "value": "35% [middle of 4 runs]"},
      {"measurement": "viability, T/C", "setting": "compound 3.16 µM", "value": "42.6% [middle of 4 runs]"},
      {"measurement": "IC50", "setting": "curve of compound", "value": "< 31.6", "unit": "nM"}
    ]},
    {"compound": "CC(Nc1ccc2c(c1)OCCn1cc(N3C(=O)OCC3C(F)F)nc1-2)C(N)=O", "note": "(configuration not stated) + CCn1c(-c2cc(N3CCN(C)CC3)cnc2C(C)OC)c2c3cc(ccc31)-c1csc(n1)CC(NC(=O)C1CC1C)C(=O)N1CCCC(N1)C(=O)OCC(C)(C)C2", "values": [
      {"measurement": "IC50", "setting": "curve of first compound, second compound 0.000949 µM", "value": "< 31.6", "unit": "nM"},
      {"measurement": "IC50", "setting": "curve of first compound, second compound 0.003 µM", "value": "< 31.6", "unit": "nM"},
      {"measurement": "IC50", "setting": "curve of first compound, second compound 0.00949 µM", "value": "< 31.6", "unit": "nM"},
      {"measurement": "IC50", "setting": "curve of first compound, second compound 0.03 µM", "value": "< 31.6", "unit": "nM"},
      {"measurement": "IC50", "setting": "curve of first compound, second compound 0.0949 µM", "value": "< 31.6", "unit": "nM"},
      {"measurement": "IC50", "setting": "curve of first compound, second compound 0.3 µM", "value": "< 31.6", "unit": "nM"},
      {"measurement": "viability, T/C", "setting": "second compound 0.000949 µM, first compound 0.0316 µM", "value": 31.7, "unit": "%"},
      {"measurement": "viability, T/C", "setting": "second compound 0.000949 µM, first compound 0.1 µM", "value": 24.1, "unit": "%"},
      {"measurement": "viability, T/C", "setting": "second compound 0.000949 µM, first compound 0.316 µM", "value": 21.9, "unit": "%"},
      {"measurement": "viability, T/C", "setting": "second compound 0.000949 µM, first compound 1 µM", "value": 13.8, "unit": "%"},
      {"measurement": "viability, T/C", "setting": "second compound 0.000949 µM, first compound 3.16 µM", "value": 14.3, "unit": "%"},
      {"measurement": "viability, T/C", "setting": "second compound 0.000949 µM, first compound 10 µM", "value": 11.4, "unit": "%"},
      {"measurement": "viability, T/C", "setting": "second compound 0.003 µM, first compound 0.0316 µM", "value": 32.7, "unit": "%"},
      {"measurement": "viability, T/C", "setting": "second compound 0.003 µM, first compound 0.1 µM", "value": 22.1, "unit": "%"},
      {"measurement": "viability, T/C", "setting": "second compound 0.003 µM, first compound 0.316 µM", "value": 20.1, "unit": "%"},
      {"measurement": "viability, T/C", "setting": "second compound 0.003 µM, first compound 1 µM", "value": 13.7, "unit": "%"},
      {"measurement": "viability, T/C", "setting": "second compound 0.003 µM, first compound 3.16 µM", "value": 8.65, "unit": "%"},
      {"measurement": "viability, T/C", "setting": "second compound 0.003 µM, first compound 10 µM", "value": 7.85, "unit": "%"},
      {"measurement": "viability, T/C", "setting": "second compound 0.00949 µM, first compound 0.0316 µM", "value": 31.2, "unit": "%"},
      {"measurement": "viability, T/C", "setting": "second compound 0.00949 µM, first compound 0.1 µM", "value": 21.7, "unit": "%"},
      {"measurement": "viability, T/C", "setting": "second compound 0.00949 µM, first compound 0.316 µM", "value": 11.8, "unit": "%"},
      {"measurement": "viability, T/C", "setting": "second compound 0.00949 µM, first compound 1 µM", "value": 8.38, "unit": "%"},
      {"measurement": "viability, T/C", "setting": "second compound 0.00949 µM, first compound 3.16 µM", "value": 7.16, "unit": "%"},
      {"measurement": "viability, T/C", "setting": "second compound 0.00949 µM, first compound 10 µM", "value": 4.66, "unit": "%"},
      {"measurement": "viability, T/C", "setting": "second compound 0.03 µM, first compound 0.0316 µM", "value": 12.8, "unit": "%"},
      {"measurement": "viability, T/C", "setting": "second compound 0.03 µM, first compound 0.1 µM", "value": 10.3, "unit": "%"},
      {"measurement": "viability, T/C", "setting": "second compound 0.03 µM, first compound 0.316 µM", "value": 11.4, "unit": "%"},
      {"measurement": "viability, T/C", "setting": "second compound 0.03 µM, first compound 1 µM", "value": 3.73, "unit": "%"},
      {"measurement": "viability, T/C", "setting": "second compound 0.03 µM, first compound 3.16 µM", "value": 6.17, "unit": "%"},
      {"measurement": "viability, T/C", "setting": "second compound 0.03 µM, first compound 10 µM", "value": 1.25, "unit": "%"},
      {"measurement": "viability, T/C", "setting": "second compound 0.0949 µM, first compound 0.0316 µM", "value": 7.65, "unit": "%"},
      {"measurement": "viability, T/C", "setting": "second compound 0.0949 µM, first compound 0.1 µM", "value": 6.24, "unit": "%"},
      {"measurement": "viability, T/C", "setting": "second compound 0.0949 µM, first compound 0.316 µM", "value": 4.21, "unit": "%"},
      {"measurement": "viability, T/C", "setting": "second compound 0.0949 µM, first compound 1 µM", "value": 1.25, "unit": "%"},
      {"measurement": "viability, T/C", "setting": "second compound 0.0949 µM, first compound 3.16 µM", "value": 5.01, "unit": "%"},
      {"measurement": "viability, T/C", "setting": "second compound 0.0949 µM, first compound 10 µM", "value": 1.25, "unit": "%"},
      {"measurement": "viability, T/C", "setting": "second compound 0.3 µM, first compound 0.0316 µM", "value": 10.2, "unit": "%"},
      {"measurement": "viability, T/C", "setting": "second compound 0.3 µM, first compound 0.1 µM", "value": 6.36, "unit": "%"},
      {"measurement": "viability, T/C", "setting": "second compound 0.3 µM, first compound 0.316 µM", "value": 5.9, "unit": "%"},
      {"measurement": "viability, T/C", "setting": "second compound 0.3 µM, first compound 1 µM", "value": 3.16, "unit": "%"},
      {"measurement": "viability, T/C", "setting": "second compound 0.3 µM, first compound 3.16 µM", "value": 3.15, "unit": "%"},
      {"measurement": "viability, T/C", "setting": "second compound 0.3 µM, first compound 10 µM", "value": 0.45, "unit": "%"}
    ]}
  ]
}
